Consider two molecules from patent US20240027428A1, “METHOD FOR BUILDING CO-CULTURE MODEL FOR CACO-2/RAW-264.7 CELLS INDUCED BY LIPOPOLYSACCHARIDES AND APPLICATION OF CO-CULTURE MODEL” (ZHEJIANG UNIVERSITY OF TECHNOLOGY, priority 2022, published 2024).

In data set [1] the test system is inflammatory factors IL-6, IL-8, IL-1β, and TNF-α. Put plainly: Content of inflammatory factors in LPS-induced Caco-2/RAW-264.7 co-culture model (ELISA). The class given is cell-based. The method, then:
(§1) Cell co-culture: Caco-2 cells were inoculated onto a 6-well Transwell plate at a density of 1×10^5 cells/well. A culture medium was changed once every 1-2 days in 21 consecutive days. RAW-264.7 cells were inoculated onto a side wall of a substrate at a density of 1×10^5 cells/well, and were cultured in 5% carbon dioxide at 37° C. for 48 h, to promote obvious adhesion of the cells to the side wall of the substrate. After 48 h, the culture medium was replaced with a serum-free DMEM. It was intended to evaluate the absorption of C3G liposomes in a co-culture model.
Determination of the content of inflammatory factors in a co-culture model: levels of inflammatory factors IL-6, IL-8, IL-1β, and TNF-α in a supernatant of Caco-2 cells in an LPS-induced co-culture model were determined with an ELISA kit.
(In general: In an ELISA, binding on a coated surface is turned into a signal by an enzyme label.)

For data set [2], the system named is Caco-2 cells. Kind of data set: CCK-8 cytotoxicity test, viability of Caco-2 cells. The class given is cell-based. The settings on record: Caco-2, 24 h, 0.2 mg/mL and below (P>0.05). In general terms: Formazan colour is commonly taken as a measure of viable cells.
Protocol: Cytotoxicity tests: according to manufacturer's instructions, cell viability was determined with a CCK-8 (Nanjing Jiancheng Biological Engineering Research Institute, Nanjing, China). In short, Caco-2 cells were treated with [MUT] liposomes at concentrations of 0.1 mg/mL, 0.2 mg/mL, 0.3 mg/mL, and 0.4 mg/mL, incubated for 24 h, then washed with PBS once, and added with a CCK-8 solution. Incubation was performed at 37° C. for 4 h, and an optical density at 450 nm was determined. […] NL and [MUT] on the viability of Caco-2 cells were inspected with a CCK-8 method. The Caco-2 cells were inoculated onto a 96-well plate having each well of 100 μL at a density of 1×10^5 cells/mL, and 200 μL of PBS was added to a peripheral well of the 96-well plate, to provide a humidity environment. […] After incubation for 24 h, 20 μL of a CCK-8 solution was added to each well, incubation was performed in an incubator at 37° C. for 1 h, and then an optical density (OD) at a wavelength of 490 nm was detected with a microplate reader and was calculated according to the following formula: Cell viability (%)=ODtreatment well/ODcontrol well×100% where the ODtreatment well represented an optical density of cells after addition of drugs, and the ODcontrol well represented an optical density of cells in a blank control.
Data set [3] has as its system Caco-2 cells. Kind of data set: Effect of an endocytosis inhibitor on uptake/transport in a co-culture model. The class given is in vitro ADME. To be noted: β-CD, chlorpromazine (CPZ), cytochalasin D (P>0.05). Here is the method: as §1
Effect of an endocytosis inhibitor on uptake in a co-culture model: 0.2 mg/mL of a C3G and C3G NL solution was prepared with an HBSS, 0.1 ml of a sample solution was added on an AP side, 0.6 mL of an HBSS was added on a BL side, an MEM, 10 mmol/L ([…]) of β-CD,10 μg/mL of chlorpromazine, 2 μmol/L (1 μg/ml) of cytochalasin D (0.1 ml) were added and sucked out after 30 min, cells were cultured in an environment at 37° C. for 1 h, three wells were provided, a culture medium was discarded after culture, and uptake was stopped using an HBSS. The content of a sample was determined with HPLC, and Papp was calculated.

Data set [4] has as its system Caco-2 cells. Put plainly: Effect of concentration on transport in a co-culture model. It counts as in vitro ADME. To be noted: at 1 h; not saturated. The method, then:
as §1
Effect of concentration on uptake in a co-culture model: 0.02 mg/ml, 0.04 mg/ml, […], 0.08 mg/ml, and 0.1 mg/ml of C3G and C3G NL solutions were prepared, transport from an AP side to a BL side and transport from the BL side to the AP side were evaluated, 0.1 ml of a sample was added on the AP side, 0.6 ml of a sample was added on the BL side, three wells were provided, […], a culture medium was discarded after culture, and uptake was stopped using an HBSS. The content of the sample on the BL side was determined with HPLC.

Data set [5] relates to Caco-2 cells. Kind of data set: Effect of time on uptake in a co-culture model. The class given is in vitro ADME. To be noted: 0.2 mg/mL, 0-6 h. Here is the method:
as §1
Effect of time on uptake in a co-culture model: 0.2 mg/mL of a C3G and C3G NL solution was prepared with a DMEM, 0.1 ml of a sample solution was added on an AP side, 0.6 mL of a DMEM was added on an BL side, culture was performed in an incubator at 37° C. for 1 h, 2 h, 3 h, 4 h, 5 h, and 6 h, three wells were provided at each time point, a drug-containing buffer solution was discarded after incubation, precooled PBS was added to stop cellular uptake, and cell monolayers were quickly washed for three times. […] A cell suspension was dissolved with methanol and centrifuged at 15,000 rpm for 20 min, then a supernatant was taken, and the content of C3G was determined with HPLC.

Data set [6] has as its system Caco-2 cells. Put plainly: Effect of temperature on uptake in a co-culture model. The settings on record: 4° C. to 37° C. (P<0.0001). It counts as in vitro ADME. Here is the method: as §1
Effect of temperature on uptake in a co-culture model: 0.2 mg/mL of a C3G and C3G NL solution was prepared with an HBSS, 0.1 ml of a sample solution was added on an AP side, 0.6 mL of an HBSS was added on an BL side, cells were cultured in environments at 37° C. and 4° C. for 2 h, three wells were provided at each temperature, a culture medium was discarded after culture, and uptake was stopped using an HBSS. The content of a sample on the BL side was determined with HPLC.

The test system of data set [7] is Caco-2 cells. Put plainly: Transport tests for Lucifer yellow across Caco-2 monolayer in Transwell. It counts as in vitro ADME. The settings on record: 20 μg/mL Lucifer yellow, AP to BL, Caco-2 cultured 21 days. The method, then:
Drawing of a standard curve for Lucifer yellow: 0.005 μg/mL, 0.01 μg/mL, 0.025 μg/mL, 0.05 μg/mL, 0.1 μg/mL, and 0.25 μg/mL of standard solutions for Lucifer yellow were prepared, the fluorescence intensities (an excitation wavelength: 427 nm, and an emission wavelength: 536 nm) of the standard solutions for Lucifer yellow were measured with a fluorescence spectrophotometer, and linear regression was performed with the fluorescence intensity as an ordinate and the concentration ([…]) as an abscissa. A standard curve was drawn.
Transport tests for Lucifer yellow: Caco-2 cells grew to 21 days in a Transwell, and then a culture medium was sucked and discarded. A preheated HBSS was added to both an AP side and a BL side for cleaning twice and was sucked and discarded, and then a preheated HBSS was added to perform culture under the conditions of 37° C. and 5% CO2 for 20 min. […] Under the condition of Ex=427 nm and Em=536 nm, the fluorescence intensity was measured according to a standard curve and a transport formula. A concentration and permeability coefficient of a transport solution for the Lucifer yellow CH on the BL side were calculated. […]

In the case of `OC[C@H]1O[C@@H](Oc2cc3c(O)cc(O)cc3[o+]c2-c2ccc(O)c(O)c2)[C@H](O)[C@@H](O)[C@@H]1O` [C3G, Cyanidin-3-glucoside], the “production of inflammatory factors after pretreatment” value in data set [1] was “reduced in a dose-dependent manner”. For the same molecule, the “change of cell viability compared with blank group” value with Caco-2 cells [2] is listed as “did not change significantly”. The “transport amounts after addition of endocytosis inhibitor compared with blank group” value with Caco-2 cells [3] was “no significant changes”. Besides, in the data set with Caco-2 cells [4], the “transport amounts in Caco-2 cells with concentration” value is on record as “increased with the increase of concentration”. Moreover, the “time of maximum uptake amount in Caco-2 cells” value in the data set on Caco-2 cells [5] was found to be 2 h. Further, the “uptake amounts in Caco-2 cells with increase of temperature” value in the data set on Caco-2 cells [6] is recorded as “increased significantly”.
Lucifer yellow: in the data set on Caco-2 cells [7], the “Papp (apparent permeability coefficient)” value turned out to be 0.0303 ×10⁻⁶ cm/s.
